Values of other authors in patent US11311621B2, “Organosilicon compound microparticles and process for their preparation” (SILICIUM ESPAÑA LABORATORIOS, S.L., priority 2018, dated 2022).

Conditions: 21° C., without irreversible polymerization after 2 months

Substance: monomethylsilanetriol [MMST]
- solubility of MMST in water without irreversible polymerization: up to 21 mM
- solubility of MMST in water without irreversible polymerization (as silicon): ≤ 588 mg Si/L
